From article PMC10052035, “Virtual Screening, Structural Analysis, and Formation Thermodynamics of Carbamazepine Cocrystals” (Pharmaceutics, 2023)

Legend:
[1] = type: physicochemical; details: for Scc, solubility of the cocrystal: pH 2; for [CF]eu, eutectic concentration of coformer / [CBZ]eu, eutectic concentration of CBZ / Keu, eutectic constant: pH 2.0, 310.2 K; for [CF]eu, eutectic concentration of coformer: eutectic point; for [CBZ]eu, eutectic concentration of CBZ: eutectic point (drug and cocrystal in equilibrium with solution); for Keu, eutectic constant: Keu = [CF]eu/[CBZ]eu
Method: The saturation shake-flask method was used to measure the aqueous solubility of the CBZ cocrystals in a pH 2.0 buffer solution at the eutectic point, where drug and cocrystal are in equilibrium with the solution. The eutectic point between the cocrystal and the drug was reached by suspending 80 mg of the cocrystal and 30 mg of CBZ in 2 mL of the buffer solution. The obtained suspension was stirred continuously for 72 h at 37.0 ± 0.1 °C. After equilibration, the final pH of the solution was measured. The suspension was diluted with the mobile phase after being filtered through a […] PTEF filter. Concentrations of compounds were analyzed by HPLC. The solid phases after the experiment were characterized by PXRD.
The column temperature was set to 40 °C.

[2] = Preliminary solution stability (congruent/incongruent dissolution) in organic solvents, PXRD of residual phases; type: physicochemical
From the text: The most convenient way to determine the solubility product of a cocrystal is to ensure that the solution and the cocrystal are at thermodynamic equilibrium, i.e., that the cocrystal is congruently soluble in the chosen solvent. In this work, acetonitrile was primarily utilized as a medium to carry out solubility experiments. […] (1:1) and [CBZ + 3AcAmBA] […] In the case of [CBZ + 3AcAmBA] (1:1), incongruent solubility of the cocrystal was expected given the high solubility ratio of the components in acetonitrile (Table S6). This is likely to result in an asymmetric ternary phase diagram with a narrow stability region for the [CBZ + 3AcAmBA] (1:1) cocrystal. […] It is reasonable to assume that the poor solution stability of the [CBZ + 2AcAmBA] (1:1) cocrystal is not due to the large solubility difference between CBZ and 2AcAmBA but rather because of the low intrinsic thermodynamic stability of the binary solid form caused by the lack of energy gain associated with cocrystal formation, which leads to a higher solubility in all solvents considered. […] (1:1) cocrystal compared to the parent pure components (~40 °C, Figure S2), implicitly corroborate this supposition. Since no suitable solvent for solubility studies of [CBZ + 2AcAmBA] (1:1) could be found, this system was not further explored. The [CBZ + 3AcAmBA]

[3] = Solubility of cocrystals and their constituents in organic solvents (shake-flask, HPLC); details: value is C∙10^2
Method: For the [CBZ + 3AcAmBA] (1:1) cocrystal, methanol was used. For [CBZ + 4AcAmBA] (1:1), all the experiments were performed in acetonitrile. An excess of the solid was placed in an Eppendorf tube, and 2 mL of solvent was added. The resulting suspension was shaken in a ThermoMixer C (Eppendorf, Hamburg, Germany) at 800 rpm for 48 h at the specified temperature. Subsequently, the saturated solution was separated using a 0.22 μm PTEF filter, diluted, and analyzed using HPLC. The solid phases after the experiment were collected and characterized by PXRD. Each experiment was repeated three times.
The HPLC was performed on an LC-20 AD Shimadzu Prominence model (Shimadzu, Kyoto, Japan) equipped with a PDA detector and a Luna C-18 column (150 mm × 4.6 mm i.d., 5 μm particle size, and 100 Å pore size). The column temperature was set to 40 °C. To achieve the proper separation of the cocrystal components, different ratios of the mobile phase, consisting of acetonitrile and a 0.1% aqueous solution of trifluoroacetic acid (35:65 v/v), were used. The flow rate was 1.0 mL·min^−1, and the injection volume was 20 μL. The UV detection of carbamazepine, 2-acetamidobenzoic acid, 3-acetamidobenzoic acid, and 4-acetamidobenzoic acid was carried out at the wavelengths of 285 nm, 249 nm, 220 nm, and 266 nm, respectively.

[4] = Cocrystal formation thermodynamics from solubility data (Kf, ΔformG, ΔformH, ΔformS); type: physicochemical; details: for ΔformH: van't Hoff, 293.15-313.15 K
From the text: It is known that the relative stability of a cocrystal with respect to a physical mixture of the parent constituents at a given temperature can be quantitatively expressed in terms of the free-energy change, ΔformG, of the cocrystallization reaction. Analyzing the temperature dependence of the Gibbs formation energy can provide further information on the enthalpy and entropy contributions to the driving force of the process as well as help to estimate the thermodynamic transition temperature, which determines the stability domains of a cocrystal and its individual constituents. The experimental assessment of ΔformG is based on solubility data for the starting molecules and the corresponding cocrystal in the same solvent at a predetermined temperature using the equation below:(3) ΔformG=−RTlnap,Ax×ap,By/acc,Ax×acc,By=−RTlnap,Ax×ap,By/Ksp=−RTlnKf, where ap,A and ap,B represent the activities of pure A and B compounds in a saturated solution; acc,A and acc,B are the activities of the cocrystal components in a solution, in equilibrium with pure cocrystal; Ksp is the solubility product of a cocrystal; T is the temperature; x and y are the stoichiometric coefficients; and Kf is an equilibrium constant at the experimental temperature.
Using the van’t Hoff expression, the enthalpy of the cocrystallization process, ΔformH, may be estimated by evaluating the Kf values at various temperatures (assuming that ΔformH is a constant within the selected temperature range):(4) dlnKf/d(1/T)=−ΔformH/R
The entropy of cocrystal formation, ΔformS, can be estimated from (5) ΔformS=ΔformH−ΔformG/T
Even though the activities in Equation (3) are usually approximated by the corresponding molar concentration while neglecting the activity coefficients, a more valid approximation implies that the activity coefficients for the two solute species are constant along the cocrystal solubility line and equal to the activity coefficients of the pure components in the saturated solutions in the same solvent and temperature. […] Table S5 contains the solubility values of CBZ, coformers, and the CBZ cocrystals with emodin, paeonol, nicotinamide, and glutaric acid in various organic solvents.

[5] = 298.2K, listed as [CBZ+4AcAmBA] (1:1)
[6] = 298.2K, listed as [CBZ+3AcAmBA] (1:1)

## CC(=O)Nc1ccccc1C(=O)O.NC(=O)N1c2ccccc2C=Cc2ccccc21 [[CBZ + 2AcAmBA] (1:1)]
[1]
  Scc, solubility of the cocrystal: (2.8 ± 0.1)·10^−3 Mol·L^−1
  [CF]eu, eutectic concentration of coformer: (7.5 ± 0.1)·10^−3 Mol·L^−1
  [CBZ]eu, eutectic concentration of CBZ: (1.10 ± 0.06)·10^−3 Mol·L^−1
  Keu, eutectic constant: 6.8 ± 0.4
[2]; acetonitrile
  dissolution behaviour / solution stability: dissolved incongruently
[2]; several other tested solvents, including methanol, ethanol, and acetone
  dissolution behaviour / solution stability: incongruent behavior

## CC(=O)Nc1ccc(C(=O)O)cc1.NC(=O)N1c2ccccc2C=Cc2ccccc21 [[CBZ + 4AcAmBA] (1:1)]
[1]
  Scc, solubility of the cocrystal: (0.80 ± 0.02)·10^−3 Mol·L^−1
  [CF]eu, eutectic concentration of coformer: (6.4 ± 0.2)·10^−4 Mol·L^−1
  [CBZ]eu, eutectic concentration of CBZ: (1.00 ± 0.05)·10^−3 Mol·L^−1
  Keu, eutectic constant: 0.64 ± 0.04
[3]; acetonitrile, 293.15 K
  Ccc,4AcAmBA∙10^2, coformer concentration in equilibrium with cocrystal: 0.880±0.016 mol/l
  Ccc,CBZ∙10^2, CBZ concentration in equilibrium with cocrystal: 0.875±0.014 mol/l
[3]; acetonitrile, 298.15 K
  Ccc,4AcAmBA∙10^2, coformer concentration in equilibrium with cocrystal: 1.046±0.010 mol/l
  Ccc,CBZ∙10^2, CBZ concentration in equilibrium with cocrystal: 1.013±0.015 mol/l
[3]; acetonitrile, 303.15 K
  Ccc,4AcAmBA∙10^2, coformer concentration in equilibrium with cocrystal: 1.222±0.017 mol/l
  Ccc,CBZ∙10^2, CBZ concentration in equilibrium with cocrystal: 1.198±0.007 mol/l
[3]; acetonitrile, 308.15 K
  Ccc,4AcAmBA∙10^2, coformer concentration in equilibrium with cocrystal: 1.472±0.008 mol/l
  Ccc,CBZ∙10^2, CBZ concentration in equilibrium with cocrystal: 1.428±0.009 mol/l
[3]; acetonitrile, 313.15 K
  Ccc,4AcAmBA∙10^2, coformer concentration in equilibrium with cocrystal: 1.707±0.030 mol/l
  Ccc,CBZ∙10^2, CBZ concentration in equilibrium with cocrystal: 1.684±0.022 mol/l
[4]; 298.2K
  T·ΔformS: -2.4 ± 0.6 kJ/mol
  lnKf: 2.86 ± 0.03
  ΔformG: -7.09 ± 0.08 kJ/mol
  ΔformH: -9.5 ± 0.6 kJ/mol
[4]; [5]
  T·ΔformS: -2.4 ± 0.6 kJ/mol
  ΔformG: -7.09 ± 0.08 kJ/mol
  ΔformH: -9.5 ± 0.6 kJ/mol
[4]; acetonitrile, 293.15 K
  lnKf: 2.93±0.04
  ∆formG: -7.13 ± 0.09 kJ/mol
[4]; acetonitrile, 298.15 K
  lnKf: 2.86±0.03
  ∆formG: -7.09 ± 0.08 kJ/mol
[4]; acetonitrile, 303.15 K
  lnKf: 2.82±0.03
  ∆formG: -7.10 ± 0.07 kJ/mol
[4]; acetonitrile, 308.15 K
  lnKf: 2.75±0.02
  ∆formG: -7.04 ± 0.05 kJ/mol
[4]; acetonitrile, 313.15 K
  lnKf: 2.67±0.03
  ∆formG: -6.95 ± 0.08 kJ/mol

## CC(=O)Nc1cccc(C(=O)O)c1.NC(=O)N1c2ccccc2C=Cc2ccccc21 [[CBZ + 3AcAmBA] (1:1)]
[1]
  Scc, solubility of the cocrystal: (1.30 ± 0.03)·10^−3 Mol·L^−1
  [CF]eu, eutectic concentration of coformer: (1.75 ± 0.08)·10^−3 Mol·L^−1
  [CBZ]eu, eutectic concentration of CBZ: (9.8 ± 0.2)·10^−4 Mol·L^−1
  Keu, eutectic constant: 1.8 ± 0.1
[3]; methanol, 293.15 K
  Ccc,3AcAmBA∙10^2, coformer concentration in equilibrium with cocrystal: 7.0±0.1 mol/l
  Ccc,CBZ∙10^2, CBZ concentration in equilibrium with cocrystal: 7.00±0.06 mol/l
[3]; methanol, 298.15 K
  Ccc,3AcAmBA∙10^2, coformer concentration in equilibrium with cocrystal: 8.1±0.1 mol/l
  Ccc,CBZ∙10^2, CBZ concentration in equilibrium with cocrystal: 8.20±0.10 mol/l
[3]; methanol, 303.15 K
  Ccc,3AcAmBA∙10^2, coformer concentration in equilibrium with cocrystal: 9.5±0.1 mol/l
  Ccc,CBZ∙10^2, CBZ concentration in equilibrium with cocrystal: 9.50±0.08 mol/l
[3]; methanol, 308.15 K
  Ccc,3AcAmBA∙10^2, coformer concentration in equilibrium with cocrystal: 11.1±0.06 mol/l
  Ccc,CBZ∙10^2, CBZ concentration in equilibrium with cocrystal: 11.00±0.08 mol/l
[3]; methanol, 313.15 K
  Ccc,3AcAmBA∙10^2, coformer concentration in equilibrium with cocrystal: 12.5±0.07 mol/l
  Ccc,CBZ∙10^2, CBZ concentration in equilibrium with cocrystal: 12.10±0.08 mol/l
[4]; 298.2K
  T·ΔformS: -3.8 ± 0.5 kJ/mol
  lnKf: 1.17 ± 0.02
  ΔformG: -2.91 ± 0.05 kJ/mol
  ΔformH: -6.7 ± 0.5 kJ/mol
[4]; [6]
  T·ΔformS: -3.8 ± 0.5 kJ/mol
  ΔformG: -2.91 ± 0.05 kJ/mol
  ΔformH: -6.7 ± 0.5 kJ/mol
[4]; methanol, 293.15 K
  lnKf: 1.20±0.02
  ∆formG: -2.93 ± 0.05 kJ/mol
[4]; methanol, 298.15 K
  lnKf: 1.17±0.02
  ∆formG: -2.91 ± 0.05 kJ/mol
[4]; methanol, 303.15 K
  lnKf: 1.12±0.02
  ∆formG: -2.83 ± 0.05 kJ/mol
[4]; methanol, 308.15 K
  lnKf: 1.06±0.015
  ∆formG: -2.72 ± 0.04 kJ/mol
[4]; methanol, 313.15 K
  lnKf: 1.04±0.02
  ∆formG: -2.69 ± 0.03 kJ/mol
[2]; acetonitrile
  dissolution behaviour / solution stability: dissolved incongruently
[2]; methanol
  dissolution behaviour / solution stability: dissolve congruently

## NC(=O)N1c2ccccc2C=Cc2ccccc21.O [carbamazepine hydrate, reference compound]
[1]; acidic conditions (pH 2.0), 310.2 K
  solubility: (8.30 ± 0.02)·10^−4 mol·l^−1
